Data published in US12427120B2, “Compositions comprising guaifenesin and flavour compounds containing an isovanillyl group” (SYMRISE AG, priority 2018, dated 2025).
Several values for one entry are separate records, joined by “and”; a condition that tells them apart may be missing. Equal values may be shown once. Marks after values point to notes of the source that are not given here.

What was measured:
[1] = system: guaifenesin-induced bitterness perception; assay: Sensory panel test of guaifenesin-induced bitterness perception (sip and spit, scale 0 to 100); assay type: in vivo, human; settings: trained panel n=20 to 30
Procedure: To verify the effect of hesperetin and phyllodulcin on guaifenesin-induced bitterness perception, an aqueous solution of 1.3 g/l guaifenesin (1) was tested against an aqueous solution containing 1.3 g/l guaifenesin and 100 mg/l hesperetin (2) or 7 mg/l phyllodulcin (3) or 100 mg/l homoeriodictyol as comparison (4). The test was conducted as a randomized comparison test in a trained sensory panel (n=20 to 30) via a sip and spit procedure. The panellists tasted both solutions in a blinded fashion and rated bitterness on a scale of 0 to 100.

HGT-1 cells = assay: Guaifenesin-induced acid (proton) secretion in HGT-1 cells; assay type: cell-based, Human; settings: for change in proton secretory activity of HGT-1 cells compared to 10 mM guaifenesin alone: 30 μM co-incubated with 10 mM guaifenesin, from 10 min onwards
Excerpt: Human gastric tumour cell line 1 (HGT-1; Laboisse C. L.; Augeron C.; Couturier-Turpin M. H.; Gespach C.; Cheret A. M.; Potet F., Characterization of a newly established human gastric cancer cell line HGT-1 bearing histamine H2-receptors, Canc. Res., 1982, 42, 1541 to 1548) is a suitable screening tool for detecting the interaction of bitter agents and bitter modulating substances (Liszt, K. I.; Hans, J.; Ley, J. P.; Kock, E.; Somoza, V., Characterization of bitter compounds via modulation of proton secretion in human gastric parietal cells in culture, J. Agric. Food Chem., 2018, 66 (10), 2295-2300.). Therefore, the effect of hesperetin and phyllodulcin on guaifenesin-induced acid secretion in the HGT-1 cell line was determined to predict the modulation of guaifenesin-induced bitterness by hesperetin and phyllodulcin. To this aim, HGT-1 cells were cultured under standard conditions and passaged at ca. 80% confluence. […] HGT-1 cells were pre-loaded with (acetyloxy)methyl-3-(acetyloxy)-10-(dimethylamino)-3′-oxo-spiro[7H-benzo[c]xanthene-7,1′(3H)-isobenzofuran]-ar′-carboxylate and incubated in 130 mM NaCl 130, 4.7 mM KCl, 1.3 mM CaCl2), 1.2 mM MgSO4, 1.2 mM KH2PO4, 11.7 mM glucose, 10 mM HEPES 10, 20 μM 4,4′-Diisothiocyanatostilbene-2,2′-disulfonic acid disodium and 20 μM 5-(N-Ethyl-N-isopropyl)amiloride at pH 7.4. Fluorescence recordings were performed with an excitation wavelength of 488 nm and monitoring the emission wavelengths of 580 nm and 640 nm, respectively, each with a 20 nm bandwidth. […]
The data in Table 1 and Table 2 are presented as mean±SEM derived from 3 biological replicates and 6 to 9 technical replicates. Outliers were identified using the Nalimov test, statistical significance was tested one-way ANOVA with Tukey's range test for multiple comparisons and Bonferroni correction, establishing the threshold for significance at p<0.01. Accordingly, data are marked with *(p<0.007), **(p<0.001) or ***(p<0.0001). Control: untreated cells

guaifenesin bitterness = settings: 200 ppm (200 mg/l, 0.2 mg/ml) HED against 13 mg/ml guaifenesin; cited from earlier work
[2] = 100 mg/l (racemic) in aqueous 1.3 g/l guaifenesin versus 1.3 g/l guaifenesin
[3] = 30 μM flavour compound co-incubated with 10 mM guaifenesin, time-point 0 min
[4] = 30 μM flavour compound co-incubated with 10 mM guaifenesin, time-point 5 min
[5] = 30 μM flavour compound co-incubated with 10 mM guaifenesin, time-point 10 min
[6] = 30 μM flavour compound co-incubated with 10 mM guaifenesin, time-point 15 min
[7] = 30 μM flavour compound co-incubated with 10 mM guaifenesin, time-point 20 min
[8] = 30 μM flavour compound co-incubated with 10 mM guaifenesin, time-point 25 min
[9] = 30 μM flavour compound co-incubated with 10 mM guaifenesin, time-point 30 min

| Structure (SMILES) | Modulation versus control (relative difference in bitter ratings) [1, 2] [%] | change in proton secretory activity of HGT-1 cells compared to 10 mM guaifenesin alone (HGT-1 cells) | proton secretory activity (log 2 transformed ratio of treated versus untreated cells), mean (HGT-1 cells; [3]) | proton secretory activity (log 2 transformed ratio of treated versus untreated cells), mean (HGT-1 cells; [4]) | proton secretory activity (log 2 transformed ratio of treated versus untreated cells), mean (HGT-1 cells; [5]) | proton secretory activity (log 2 transformed ratio of treated versus untreated cells), mean (HGT-1 cells; [6]) | proton secretory activity (log 2 transformed ratio of treated versus untreated cells), mean (HGT-1 cells; [7]) | proton secretory activity (log 2 transformed ratio of treated versus untreated cells), mean (HGT-1 cells; [8]) | proton secretory activity (log 2 transformed ratio of treated versus untreated cells), mean (HGT-1 cells; [9]) | reduction in guaifenesin bitterness (guaifenesin bitterness) | proton secretory activity (log 2 transformed ratio of treated versus untreated cells), mean (HGT-1 cells; 10 mM guaifenesin alone, time-point 0 min) | proton secretory activity (log 2 transformed ratio of treated versus untreated cells), mean (HGT-1 cells; 10 mM guaifenesin alone, time-point 5 min) | proton secretory activity (log 2 transformed ratio of treated versus untreated cells), mean (HGT-1 cells; 10 mM guaifenesin alone, time-point 10 min) | proton secretory activity (log 2 transformed ratio of treated versus untreated cells), mean (HGT-1 cells; 10 mM guaifenesin alone, time-point 15 min) | proton secretory activity (log 2 transformed ratio of treated versus untreated cells), mean (HGT-1 cells; 10 mM guaifenesin alone, time-point 20 min) | proton secretory activity (log 2 transformed ratio of treated versus untreated cells), mean (HGT-1 cells; 10 mM guaifenesin alone, time-point 25 min) | proton secretory activity (log 2 transformed ratio of treated versus untreated cells), mean (HGT-1 cells; 10 mM guaifenesin alone, time-point 30 min) | Modulation versus control (relative difference in bitter ratings) ([1]; 7 mg/l (98 weight %, 95 mol % enantiomeric purity) in aqueous 1.3 g/l guaifenesin versus 1.3 g/l guaifenesin) [%] |
| --- | --- | --- | --- | --- | --- | --- | --- | --- | --- | --- | --- | --- | --- | --- | --- | --- | --- | --- |
| COc1ccc([C@@H]2CC(=O)c3c(O)cc(O)cc3O2)cc1O (racemic) [hesperetin, (2S)-/(2R)-5,7-dihydroxy-2-(3-hydroxy-4-methoxyphenyl)-4-chromanone] | −25 | significant decrease | −0.132 | 0.05735*** | −0.04329* | 0.03955*** | 0.002334*** | 0.01577*** | 0.02592*** |  |  |  |  |  |  |  |  |  |
| COc1cc([C@@H]2CC(=O)c3c(O)cc(O)cc3O2)ccc1O (racemic) [homoeriodictyol, (2S)-/(2R)-5,7-Dihydroxy-2-(4-hydroxy-3-methoxyphenyl)-4-chromanone, reference compound] | −12 |  |  |  |  |  |  |  |  | about 40% |  |  |  |  |  |  |  |  |
| COc1ccccc1OCC(O)CO (stereo not drawn) [guaifenesin, 3-(2-methoxyphenoxy-)1,2-propanediol] |  |  |  |  |  |  |  |  |  |  | 0.2711 and 0.2596 | 0.2378 and 0.2475 | 0.2801 and 0.187 | 0.2178 and 0.2259 | 0.323 and 0.265 | 0.3953 and 0.1861 | 0.2706 and 0.2473 |  |
| COc1ccc([C@H]2Cc3cccc(O)c3C(=O)O2)cc1O [phyllodulcin, (3S)-/(3R)-8-hydroxy-3-(3-hydroxy-4-methoxy-phenyl)isochroman-1-one] |  | significant decrease | −0.08165* | 0.0579*** | 0.07294*** | −0.04172 | 0.08512* | −0.1469 | 0.1433*** |  |  |  |  |  |  |  |  | −15 |
